Laboratory results taken from US7521449B2, “4-arylmorpholin-3-one derivatives, their preparation and therapeutic use thereof” (Sanofi-Aventis, priority 2004, dated 2009).
Structures can show the parent of a compound that is named as a salt.

What was measured:
NK2 receptor = molecular target: T1, NK2 receptor (Mus musculus, UniProt P30549); experiment: Spinning behavior caused by injection of [Nle10]NKA(4-10) into the striatum of mice, compounds administered orally; assay type: in vivo
T1 construct: from tissue; host or cells: mouse striatum (in vivo)
T1 sequence (P30549 1-384): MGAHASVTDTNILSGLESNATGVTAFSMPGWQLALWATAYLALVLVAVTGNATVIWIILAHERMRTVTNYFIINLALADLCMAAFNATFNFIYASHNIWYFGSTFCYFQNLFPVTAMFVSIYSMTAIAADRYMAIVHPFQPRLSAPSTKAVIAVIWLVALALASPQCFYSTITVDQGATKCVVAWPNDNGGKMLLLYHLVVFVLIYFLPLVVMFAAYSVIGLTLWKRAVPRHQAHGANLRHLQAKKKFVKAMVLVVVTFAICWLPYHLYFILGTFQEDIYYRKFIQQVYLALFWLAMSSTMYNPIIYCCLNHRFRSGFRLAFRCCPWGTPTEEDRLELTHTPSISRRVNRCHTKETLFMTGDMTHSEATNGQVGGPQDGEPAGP
Experimental: The compounds of the present invention were also evaluated in vivo in a model of pharmacodynamics.
In mice, injection into the striatum of a specific agonist of the NK2 receptor, [Nle^10]NKA(4-10), causes a spinning behavior, which is inhibited in a dose-dependent manner by the compounds according to the invention administered orally. This test was performed according to Poncelet et al. (Neurosci. Lett., 1993, 149, 40-42).

[1] = molecular target: T2, cloned human NK2 receptors (Homo sapiens, UniProt P21452); experiment: Inhibition of the binding of [125I]His-neurokinin A to cloned human NK2 receptors expressed by CHO cells; conditions: binding of [125I]His-NKA, cloned human NK2 receptors expressed in CHO cells; read-out: inhibition constant Ki
T2 construct: expressed in transfected cells; host or cells: CHO cells
T2 sequence (P21452 1-398): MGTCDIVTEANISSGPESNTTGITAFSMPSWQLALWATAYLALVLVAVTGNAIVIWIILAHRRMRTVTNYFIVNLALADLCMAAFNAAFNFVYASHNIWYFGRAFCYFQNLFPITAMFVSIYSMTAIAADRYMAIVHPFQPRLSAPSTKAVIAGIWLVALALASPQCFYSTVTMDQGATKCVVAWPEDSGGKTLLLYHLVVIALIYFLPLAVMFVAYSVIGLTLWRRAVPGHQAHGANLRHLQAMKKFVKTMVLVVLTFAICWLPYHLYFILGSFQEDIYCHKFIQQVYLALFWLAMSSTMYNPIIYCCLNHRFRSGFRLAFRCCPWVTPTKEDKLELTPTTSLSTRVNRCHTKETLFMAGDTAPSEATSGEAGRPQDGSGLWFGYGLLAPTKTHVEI
Experimental: The affinity of the compounds for the tachykinin receptors NK2 was evaluated in vitro by measuring the inhibition of the binding of [^125I]His-neurokinin A ([^125I]His-NKA) to cloned human NK2 receptors expressed by CHO cells (Y. Takeda et al., J. Neurochem., 1992, 59, 740-745).
The trials were performed according to […]

For `CC(=O)NC1(c2cccc(F)c2)CCN(CCC2(c3ccc(Cl)c(Cl)c3)CN(c3ccccc3)C(=O)CO2)CC1` (single isomer, unassigned) [Compound 3, N-[1-[2-[2-(3,4-Dichlorophenyl)-5-oxo-4-phenylmorpholin-2-yl]ethyl]-4-(3-fluorophenyl)piperid-4-yl]acetamide hydrochloride, dextrorotatory isomer], the “antagonism of the NK2 receptors (blocking the pharmacological effects caused by neurokinin A)” value (NK2 receptor; conclusion from the pharmacological results) was “antagonists of the NK2 receptors”, the ED50 (NK2 receptor; mouse, po, mice, orally, spinning behavior caused by intrastriatal [Nle10]NKA(4-10), read-out: 50 effective dose (ED50)) was 0.023 mg/kg and the Ki [1] was 0.16 nM.
